Tests used:
Escherichia coli ML35 = test: Dose response and kinetics of antimicrobial activity in 10 mM sodium phosphate buffer; format: cell-based
Method: The time course and dose-dependence of the antimicrobial activity of an antimicrobial peptide can be determined by incubating a microorganism with the antimicrobial peptide and determining the viability after various times of incubation or after treatment with various concentrations of the antimicrobial peptide.
Exemplary assays using indolicidin and indolicidin analogs were performed in 10 mM sodium phosphate buffer, pH 7.4, at 37° C., as described by Selsted et al. (1985) Infect. Immun. 45:150-154, which is incorporated herein by reference.
The dose response of a gram negative bacterial strain, Escherichia coli ML35, and a gram positive bacterial strain, Staphylococcus aureus 502A, to indolicidin was determined by incubating 2×10^6 colony forming units (CFU) of log phase bacteria with 0-25 μg/mL of indolicidin for two hours. Following incubation, the cultures were serially diluted and plated on nutrient agar. Viability of both gram negative and gram positive bacteria was reduced by at least four orders of magnitude in incubations containing 10 μg/mL of indolicidin. E. coli was more susceptible than S. aureus, as >95% of the input cells were killed after 2 hr incubation with 2.5 μg/mL indolicidin. […]
The kinetics of indolicidin antimicrobial activity was evaluated by incubating 2×10^6 E. coli with […] of indolicidin for 1 to 40 min. […]

[1] = tested on: Staphylococcus aureus (ATCC 6538); test: Short-term (14 day) stability in commercial plastic container (RENU) by S. aureus bioassay; format: cell-based; details: for stability of antimicrobial activity: room temperature, plastic container
Text: The objective of this study was to determine if there is significant and rapid binding of L-IND to a typical plastic bottle such as the type to be used to store, ship and use the lens-care solution. The 2-week study reported here was a range-finding task to determine if there was substantial binding and incompatibility, and its results helped plan a more extensive stability study over a period of 8 months.
The two commercial containers were used that previously contained the commercial product RENU®, a multi-purpose solution for all soft contact lenses not requiring enzymatic cleaning, and manufactured by Bausch & Lomb. These containers hold a volume of 89 ml and came with a dispenser that precludes the removal of the cap, which aids in keeping the solution sterile. The lot number of the RENU® lens-care solutions used was GE7089, having an expiration date of May 1999.
The containers were prepared for the L-IND stability study by discarding the RENU® lens care solution, and by rinsing, 3 times with either sterile 10 mM sodium phosphate buffer (SP), pH 7.4 or 10 mM SP supplemented with 0.85 % (w/v) sodium chloride (SP+NaCl).
The test article, L-IND peptide solution, was prepared fresh from dry L-IND powder (Lot #036752). Two solutions were prepared for evaluation, to a final concentration of 50 μg/ml in 50 ml of 10 mM SP and 10 mM SP+NaCl. For this purpose a stock solution was prepared by weighing out 5 mg of L-IND and dissolving it in 10 ml of 0.01% acetic acid in a pyrogen free sterile Teflon container. A 10-fold dilution of this stock was then made by transferring 5 ml of the stock solution to each of the containers to which was then added 45 ml of either 10 mM SP or 10 mM SP+NaCl. After mixing by slowly shaking, the solutions were maintained at room temperature for the duration of the study.
It should be noted that the 5 ml of the L-IND stock solution was added to the empty containers. This was followed by addition of 45 ml of the respective buffer systems. The addition of peptide concentrate to the empty containers would enhance binding of the peptide to the plastic. Had excessive binding resulted, a less stringent procedure of adding the peptide concentrate to bottles prefilled with buffer would have been adopted in subsequent experiments.
The stability of L-IND in each container was determined at times 0 h, 24 h, 48 h, 72 h, 7 d, 10 d and 14 d. At each sampling point, the contents of each of the two containers was shaken gently 3 times in a back and forth rocking motion. Three aliquots of about 1.5 ml of the solutions containing L-IND were removed. One aliquot was used immediately for determining the stability of L-IND by exposure to Staphylococcus aureus (see below). The other aliquots were stored in the freezer (−20° C.). One of these aliquots was kept until the end of the monitoring period, which was 14 days. At that time all the frozen samples were thawed and tested for stability of L-IND by bioassay.
Staphylococcus aureus (ATCC 6538) obtained directly from the American Type Culture Collection was the test organism. The bacterium was grown overnight at 37° C. in 5 ml of Mueller-Hinton (MH) broth on a shaking platform (180 rpm). The overnight culture was washed 2 times in sterile saline by centrifugation at 7,000 RPM. One half of the cells were then resuspended in 2.5 ml of sterile 10 mM SP, while the other half was resuspended in 2.5 ml of 10 mM SP+NaCl. Each washed culture was then diluted to give an estimated 10^7 colony-forming-units (CFU) per […].
S. aureus was exposed at room temperature to each of the samples, removed at the different time points, for 0, 15 and 60 minutes, and for 4 hours. For this purpose 0.25 ml of each L-IND solution was dispensed into wells of a 96-well polypropylene titer plate. A volume of 20 μl of the 10× washed bacterial suspension was then added to each well. The estimated cell density thus obtained per well was about 10^6 CFU/ml. […]

[2] = tested on: P. aeruginosa (ATCC 27853); test: Protocol 3 time-dependent antimicrobial activity at one dose level; format: cell-based, Pseudomonas aeruginosa

SMILES: CC[C@H](C)[C@H](N)C(=O)N[C@@H](CC(C)C)C(=O)N1CCC[C@H]1C(=O)N[C@@H](Cc1c[nH]c2ccccc12)C(=O)N[C@@H](CCCCN)C(=O)N[C@@H](Cc1c[nH]c2ccccc12)C(=O)N1CCC[C@H]1C(=O)N[C@@H](Cc1c[nH]c2ccccc12)C(=O)N[C@@H](Cc1c[nH]c2ccccc12)C(=O)N1CCC[C@H]1C(=O)N[C@@H](Cc1c[nH]c2ccccc12)C(=O)N[C@@H](CCCNC(=N)N)C(=O)N[C@@H](CCCNC(=N)N)C(N)=O [L-indolicidin, H2N-ILPWKWPWWPWRR-CONH2]
- Viability reduction (Escherichia coli ML35; 10 μg/mL indolicidin, 2 hours, 10 mM sodium phosphate buffer pH 7.4, 37° C., 2×10^6 CFU): at least four
- culture viability (Escherichia coli ML35; 25 μ/mL indolicidin, after 20 min): essentially was sterilized
- stability of antimicrobial activity ([1]; 50 μg/ml in 10 mM SP+NaCl (0.85%), 14 days): stable
- stability of antimicrobial activity ([1]; 50 μg/ml in 10 mM SP, 14 days): stable
- adsorption to the plastic container ([1]; 50 μg/ml, 14 days): no obvious or dramatic adsorption
- log kill ([1]; 50 μg/ml, frozen samples, 10 mM SP+NaCl, 4 hours exposure): about 1.5 log
- log kill ([1]; 50 μg/ml, frozen, 10 mM SP, 60 minute exposure): 6 log
- log kill ([1]; 50 μg/ml, unfrozen, 10 mM SP+NaCl (0.85%), 4 hours exposure): ~1 log
- log kill ([1]; 50 μg/ml, unfrozen, 10 mM SP, 4 hours exposure): 4 log
- log cell reduction ([2]; 50 μg/ml, 10 mM sodium phosphate buffer, as early as after 1 minute exposure, initial 2.0×10^6 CFU/ml): ~6 log
- survival ([2]; 50 μg/ml, 10 mM sodium phosphate buffer, exposure time 0 hr): 2.4 × 10^6 CFU/ml
- survival ([2]; 50 μg/ml, 10 mM sodium phosphate buffer, exposure time 1 hr): 1.6 × 10^6 CFU/ml
- survival ([2]; 50 μg/ml, 10 mM sodium phosphate buffer, exposure time 2 hr): 1.1 × 10^5 CFU/ml
- survival ([2]; 50 μg/ml, 10 mM sodium phosphate buffer, exposure time 4 hr): 0 CFU/ml
- survival ([2]; 50 μg/ml, 10 mM sodium phosphate buffer, exposure time 6 hr): 0 CFU/ml
- survival ([2]; 50 μg/ml, 10 mM sodium phosphate buffer, exposure time 12 hr): 0 CFU/ml
- survival ([2]; 50 μg/ml, 10 mM sodium phosphate buffer, up to 15 minutes): 100%
- killing ([2]; 50 μg/ml, 100 mM sodium phosphate buffer, exposures of between 15 and 60 min): virtually complete killing
- survival ([2]; 50 μ/ml, 10 mM sodium phosphate buffer, after 4 hours exposure): no detectable survival

Source: patent publication US6482799B1, “Self-preserving multipurpose ophthalmic solutions incorporating a polypeptide antimicrobial” (The Regents of the University of California, priority 1999, dated 2002)
